Test results: patent publication US9938261B2, “Heterocyclic compounds and methods of use thereof” (AMBIT BIOSCIENCES CORPORATION, priority 2011, dated 2018)

Columns and labels:
FLT3 = target: T1, FLT3 (Homo sapiens, UniProt P36888); assay: Competition binding assay, FLT3 Kd; conditions: competition binding
T1 construct: made in house
T1 sequence (P36888 27-993): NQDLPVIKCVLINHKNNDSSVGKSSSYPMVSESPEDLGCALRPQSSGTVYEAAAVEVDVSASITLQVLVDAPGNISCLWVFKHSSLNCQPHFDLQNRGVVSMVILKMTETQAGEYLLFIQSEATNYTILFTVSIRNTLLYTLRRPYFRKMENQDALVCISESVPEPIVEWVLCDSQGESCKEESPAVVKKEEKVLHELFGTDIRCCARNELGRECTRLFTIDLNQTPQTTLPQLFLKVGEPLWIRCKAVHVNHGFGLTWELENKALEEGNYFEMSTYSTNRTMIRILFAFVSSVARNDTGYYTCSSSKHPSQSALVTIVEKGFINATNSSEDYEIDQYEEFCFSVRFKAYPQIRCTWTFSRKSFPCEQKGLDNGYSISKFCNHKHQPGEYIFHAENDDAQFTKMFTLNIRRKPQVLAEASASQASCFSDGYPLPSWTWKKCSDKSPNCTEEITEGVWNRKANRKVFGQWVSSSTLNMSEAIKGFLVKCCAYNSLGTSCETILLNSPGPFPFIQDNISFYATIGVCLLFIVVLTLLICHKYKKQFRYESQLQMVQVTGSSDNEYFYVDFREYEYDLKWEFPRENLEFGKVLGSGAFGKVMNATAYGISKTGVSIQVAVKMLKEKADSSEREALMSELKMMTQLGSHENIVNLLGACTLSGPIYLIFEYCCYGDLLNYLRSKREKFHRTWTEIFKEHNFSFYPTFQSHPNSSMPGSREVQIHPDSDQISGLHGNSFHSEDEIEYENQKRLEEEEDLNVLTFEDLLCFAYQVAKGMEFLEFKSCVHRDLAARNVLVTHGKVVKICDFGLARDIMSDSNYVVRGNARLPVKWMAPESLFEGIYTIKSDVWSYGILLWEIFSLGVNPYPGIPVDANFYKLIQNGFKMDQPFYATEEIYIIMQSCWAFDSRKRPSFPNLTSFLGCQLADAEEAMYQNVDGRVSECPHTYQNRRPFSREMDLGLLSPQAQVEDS
Procedure, shortened: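 Compound displacement of kinase from bead-immobilized ligand is measured by qPCR after 1 h equilibration at room temperature. Kinases are T7 phage fusions or DNA-tagged HEK-293 products.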

M-NFS-60 cells = assay: M-NFS-60 cell proliferation assay (Alamar Blue); assay type: cell-based, mouse; conditions: Mus musculus; M-NFS-60 cell proliferation; read-out: CSF1R M-NFS-60 CTB:IC50
Procedure, shortened: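 Mouse M-NFS-60 cells growing on 20 ng/mL M-CSF in RPMI/10% FBS were exposed to compounds (9 half-log concentrations, 0.5% DMSO) for 72 h at 37 °C. Viability read by Alamar Blue fluorescence (ex 560/em 590 nm, 3 h). IC50 = 50% proliferation inhibition versus control, mean of duplicates.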

SMILES: OC[C@H]1CCCC[C@H]1Nc1nc2ccc(Cn3cnc4cc(Br)cnc43)cc2s1 [Example 136, ((1S,2R)-2-((6-((6-bromo-3H-imidazo[4,5-b]pyridin-3-yl)methyl)benzo[d]thiazol-2-yl)amino)cyclohexyl)methanol]
- Kd (FLT3): 1000 to 5000 nM
- IC50 (M-NFS-60 cells): 50 to 400 nM

SMILES: O[C@@H]1CCCC[C@H]1Nc1nc2ccc(Cn3cnc4cc(Cl)c(Cl)nc43)cc2s1 [Example 137, (1R,2R)-2-((6-((5,6-dichloro-3H-imidazo[4,5-b]pyridin-3-yl)methyl)benzo[d]thiazol-2-yl)amino)cyclohexanol]
- Kd (FLT3): 200 to 1000 nM
- IC50 (M-NFS-60 cells): ≤ 50 nM

SMILES: CCOc1ccc2c(c1)ncn2Cc1ccc2nc(N[C@@H]3CCCC[C@H]3O)sc2c1 [Example 138, (1R,2R)-2-((6-((5-ethoxy-1H-benzo[d]imidazol-1-yl)methyl)benzo[d]thiazol-2-yl)amino)cyclohexanol]
- Kd (FLT3): 200 to 1000 nM
- IC50 (M-NFS-60 cells): ≤ 50 nM

SMILES: N#Cc1cc2ncn(Cc3ccc4nc(N[C@@H]5CCCC[C@H]5O)sc4c3)c2nc1C#N [Example 139, 3-((2-(((1R,2R)-2-hydroxycyclohexyl)amino)benzo[d]thiazol-6-yl)methyl)-3H-imidazo[4,5-b]pyridine-5,6-dicarbonitrile]
- Kd (FLT3): 200 to 1000 nM
- IC50 (M-NFS-60 cells): 400 to 1500 nM

SMILES: N#Cc1cnc2c(c1)ncn2Cc1ccc2nc(N[C@@H]3CCCC[C@H]3CO)sc2c1 [Example 140, 3-((2-(((1R,2R)-2-(hydroxymethyl)cyclohexyl)amino)benzo[d]thiazol-6-yl)methyl)-3H-imidazo[4,5-b]pyridine-6-carbonitrile]
- Kd (FLT3): > 5000 nM
- IC50 (M-NFS-60 cells): 400 to 1500 nM

SMILES: O[C@@H]1CCCC[C@H]1Nc1nc2ccc(Cn3cnc4cc(-n5cccn5)cnc43)cc2s1 [Example 141, (1R,2R)-2-((6-((6-(1H-pyrazol-1-yl)-3H-imidazo[4,5-b]pyridine-3-yl)methyl)benzo[d]thiazol-2-yl)amino)cyclohexanol]
- Kd (FLT3): 200 to 1000 nM
- IC50 (M-NFS-60 cells): ≤ 50 nM

SMILES: O[C@@H]1CCCC[C@H]1Nc1nc2ccc(Cc3cnc4cccnn34)cc2o1 [Example 142, (1R,2R)-2-((6-(imidazo[1,2-b]pyridazin-3-ylmethyl)benzo[d]oxazol-2-yl)amino)cyclohexanol]
- Kd (FLT3): ≤ 200 nM
- IC50 (M-NFS-60 cells): 50 to 400 nM

SMILES: CNC(=O)c1ccc2ncc(Cc3ccc4nc(N[C@@H]5CCCC[C@H]5O)sc4c3)n2n1 [Example 143, 3-((2-(((1R,2R)-2-hydroxycyclohexyl)amino)benzo[d]thiazol-6-yl)methyl)-N-methylimidazo[1,2-b]pyridazine-6-carboxamide]
- Kd (FLT3): 1000 to 5000 nM
- IC50 (M-NFS-60 cells): 400 to 1500 nM

SMILES: OCc1ccc2ncc(Cc3ccc4nc(N[C@@H]5CCCC[C@H]5O)sc4c3)n2n1 [Example 144, (1R,2R)-2-((6-((6-(hydroxymethyl)imidazo[1,2-b]pyridazin-3-yl)methyl)benzo[d]thiazol-2-yl)amino)cyclohexanol]
- Kd (FLT3): 200 to 1000 nM
- IC50 (M-NFS-60 cells): 50 to 400 nM

SMILES: O[C@@H]1CCCC[C@H]1Nc1nc2ccc(Cn3cnc4cc(-n5cncn5)cnc43)cc2s1 [Example 145, (1R,2R)-2-((6-((6-(1H-1,2,4-triazol-1-yl)-3H-imidazo[4,5-b]pyridin-3-yl)methyl)benzo[d]thiazol-2-yl)amino)cyclohexanol]
- Kd (FLT3): 1000 to 5000 nM
- IC50 (M-NFS-60 cells): 50 to 400 nM

SMILES: O[C@@H]1CCCC[C@H]1Nc1nc2ccc(Cn3cnc4cc(I)cnc43)cc2s1 [Example 146, (1R,2R)-2-((6-((6-iodo-3H-imidazo[4,5-b]pyridin-3-yl)methyl)benzo[d]thiazol-2-yl)amino)cyclohexanol]
- Kd (FLT3): 200 to 1000 nM
- IC50 (M-NFS-60 cells): 50 to 400 nM

SMILES: Oc1ccc2c(c1)ncn2Cc1ccc2nc(N[C@@H]3CCCC[C@H]3O)sc2c1 [Example 147, 1-((2-(((1R,2R)-2-hydroxycyclohexyl)amino)benzo[d]thiazol-6-yl)methyl)-1H-benzo[d]imidazol-5-ol]
- Kd (FLT3): 200 to 1000 nM
- IC50 (M-NFS-60 cells): 50 to 400 nM

SMILES: O[C@@H]1CCCC[C@H]1Nc1nc2ccc(Cn3cnc4cc(F)cc(F)c43)cc2s1 [Example 148, (1R,2R)-2-((6-((5,7-difluoro-1H-benzo[d]imidazol-1-yl)methyl)benzo[d]thiazol-2-yl)amino)cyclohexanol]
- Kd (FLT3): 1000 to 5000 nM
- IC50 (M-NFS-60 cells): 50 to 400 nM

SMILES: O[C@@H]1CCCC[C@H]1Nc1nc2ccc(Cn3cnc4cc(OC(F)(F)F)ccc43)cc2s1 [Example 149, (1R,2R)-2-((6-((5-(trifluoromethoxy)-1H-benzo[d]imidazol-1-yl)methyl)benzo[d]thiazol-2-yl)amino)cyclohexanol]
- Kd (FLT3): 1000 to 5000 nM
- IC50 (M-NFS-60 cells): 50 to 400 nM

SMILES: COc1ccc2ncc(Cc3ccc4nc(N[C@@H]5CCCC[C@H]5O)sc4c3)n2n1 [Example 150, (1R,2R)-2-((6-((6-methoxyimidazo[1,2-b]pyridazin-3-yl)methyl)benzo[d]thiazol-2-yl)amino)cyclohexanol]
- Kd (FLT3): 200 to 1000 nM
- IC50 (M-NFS-60 cells): 50 to 400 nM

SMILES: COc1ccc2c(c1)ncn2Cc1ccc2nc(N[C@@H]3CCCC[C@H]3O)oc2c1 [Example 151, (1R,2R)-2-((6-((5-methoxy-1H-benzo[d]imidazol-1-yl)methyl)benzo[d]oxazol-2-yl)amino)cyclohexanol]
- Kd (FLT3): 200 to 1000 nM
- IC50 (M-NFS-60 cells): 50 to 400 nM

SMILES: COc1ccc2ncn(Cc3ccc4nc(N[C@@H]5CCCC[C@H]5O)oc4c3)c2c1 [Example 152, (1R,2R)-2-((6-((6-methoxy-1H-benzo[d]imidazol-1-yl)methyl)benzo[d]oxazol-2-yl)amino)cyclohexanol]
- Kd (FLT3): ≤ 200 nM
- IC50 (M-NFS-60 cells): 50 to 400 nM

SMILES: COCCOc1ccn2c(Cc3ccc4nc(N[C@@H]5CCCC[C@H]5O)sc4c3)cnc2c1 [Example 153, (1R,2R)-2-((6-((7-(2-methoxyethoxy)imidazo[1,2-a]pyridin-3-yl)methyl)benzo[d]thiazol-2-yl)amino)cyclohexanol]
- Kd (FLT3): 1000 to 5000 nM
- IC50 (M-NFS-60 cells): 50 to 400 nM

SMILES: O[C@@H]1CCCC[C@H]1Nc1nc2cc(F)c(Cn3cnc4cccnc43)cc2s1 [Example 154, (1R,2R)-2-((6-((3H-imidazo[4,5-b]pyridin-3-yl)methyl)-5-fluorobenzo[d]thiazol-2-yl)amino)cyclohexanol]
- Kd (FLT3): 1000 to 5000 nM
- IC50 (M-NFS-60 cells): 50 to 400 nM

SMILES: O[C@@H]1CCCC[C@H]1Nc1nc2ccc(Cc3cnc4ccc(N5CCOCC5)nn34)cc2s1 [Example 155, (1R,2R)-2-((6-((6-morpholinoimidazo[1,2-b]pyridazin-3-yl)methyl)benzo[d]thiazol-2-yl)amino)cyclohexanol]
- Kd (FLT3): ≤ 200 nM
- IC50 (M-NFS-60 cells): 50 to 400 nM

SMILES: O[C@@H]1CCCC[C@H]1Nc1nc2c(Cl)cc(Cc3cnc4ccc(N5CCOCC5)nn34)cc2s1 [Example 156, (1R,2R)-2-((4-chloro-6-((6-morpholinoimidazo[1,2-b]pyridazin-3-yl)methyl)benzo[d]thiazol-2-yl)amino)cyclohexanol]
- Kd (FLT3): 1000 to 5000 nM
- IC50 (M-NFS-60 cells): 400 to 1500 nM

SMILES: O[C@@H]1CCCC[C@H]1Nc1nc2ccc(Cc3cnc4sccn34)cc2s1 [Example 157, (1R,2R)-2-((6-(imidazo[2,1-b]thiazol-5-ylmethyl)benzo[d]thiazol-2-yl)amino)cyclohexanol]
- Kd (FLT3): > 5000 nM
- IC50 (M-NFS-60 cells): 400 to 1500 nM

SMILES: O[C@@H]1CCCC[C@H]1Nc1nc2ccc(Cc3cnc4ccc(Cl)nn34)cc2s1 [Example 158, (1R,2R)-2-((6-((6-chloroimidazo[1,2-b]pyridazin-3-yl)methyl)benzo[d]thiazol-2-yl)amino)cyclohexanol]
- Kd (FLT3): 200 to 1000 nM
- IC50 (M-NFS-60 cells): ≤ 50 nM

SMILES: O[C@@H]1CCCC[C@H]1Nc1nc2ccc(Cc3cnc4ccc(-n5cccn5)cn34)cc2s1 [Example 159, (1R,2R)-2-((6-((6-(1H-pyrazol-1-yl)imidazo[1,2-a]pyridin-3-yl)methyl)benzo[d]thiazol-2-yl)amino)cyclohexanol]
- Kd (FLT3): 1000 to 5000 nM
- IC50 (M-NFS-60 cells): 400 to 1500 nM

SMILES: O[C@@H]1CCCC[C@H]1Nc1nc2ccc(Cn3cnc4cc(-n5cccn5)ccc43)cc2s1 [Example 160, (1R,2R)-2-((6-((5-(1H-pyrazol-1-yl)-1H-benzo[d]imidazol-1-yl)methyl)benzo[d]thiazol-2-yl)amino)cyclohexanol]
- Kd (FLT3): 200 to 1000 nM
- IC50 (M-NFS-60 cells): ≤ 50 nM

SMILES: O[C@@H]1CCCC[C@H]1Nc1nc2ccc(Cn3cnc4cc(-n5cncn5)ccc43)cc2s1 [Example 161, (1R,2R)-2-((6-((5-(1H-1,2,4-triazol-1-yl)-1H-benzo[d]imidazol-1-yl)methyl)benzo[d]thiazol-2-yl)amino)cyclohexanol]
- Kd (FLT3): 1000 to 5000 nM
- IC50 (M-NFS-60 cells): 50 to 400 nM
